Results on eight compounds are retold here after article PMC10812467, “Peroxidasin Inhibition by Phloroglucinol and Other Peroxidase Inhibitors” (Antioxidants, 2023).

Assay [1] deals with collagen IV NCD sulfilimine cross-link formation in isolated ECM from PFHR9 cells. As to the kind of experiment: Inhibition of collagen IV cross-linking in decellularized extracellular matrix. The class given is biochemical. To be noted: 100 μM bromide, 100 μM hydrogen peroxide, 1 h 37 °C, Western blot densitometry, read-out: IC50 DECM. The procedure:
(§1) PFHR9 cells (ATCC) were grown in Dulbecco’s Modified Eagle Medium (Gibco), supplemented with 10% heat-inactivated foetal bovine serum (Moregate) and 1% Penicillin Streptomycin (Gibco). As described previously, cells were seeded in 150 mm cell culture dishes and ECM was isolated. The concentration of the isolated ECM protein was measured (Direct Detect) and the yield was typically ~5 mg per dish. […] After 10 min, 100 μM bromide was added and the cross-link formation was started by adding 100 μM hydrogen peroxide. After 1 h at 37 °C, the reaction was stopped, by adding 1 mM sodium azide, and ECM was digested with 2 mg mL^−1 of collagenase type I (Worthington) for 48 h at 37 °C. The digest was spun (20 kg, RT, 20 min) and the extent of cross-linking of the NCD of collagen IV was determined by the resolution of the supernatant protein on a 12% sodium dodecyl-sulfate polyacrylamide gel electrophoresis (SDS-PAGE). […] Densitometric analyses of both dimer bands (Alliance Uvitec Cambridge imager) were used to determine the extent of inhibition of the cross-link formation. […] Once full confluence was reached, the medium was changed daily, and inhibitors were added at the indicated concentrations in 1 mL of medium for 7 days.

Assay [2] has as its system collagen IV NCD sulfilimine cross-link formation of PFHR9 cells. The assay can be described thus: Inhibition of collagen IV cross-linking in cell culture. The assay is classed as cell-based. The note with it: PFHR9 cells grown with inhibitor for 7 days, Western blot densitometry, n.a. = 50% inhibition not reached. The procedure:
as §1

Assay [3] deals with T1, Human peroxidasin (PXDN) (Homo sapiens, UniProt Q92626).
T1 construct: the four immunoglobulin domains and the peroxidase domain (amino acid residue 246-1314); made in house; host or cells: transient transfection
T1 sequence (Q92626 246-1314): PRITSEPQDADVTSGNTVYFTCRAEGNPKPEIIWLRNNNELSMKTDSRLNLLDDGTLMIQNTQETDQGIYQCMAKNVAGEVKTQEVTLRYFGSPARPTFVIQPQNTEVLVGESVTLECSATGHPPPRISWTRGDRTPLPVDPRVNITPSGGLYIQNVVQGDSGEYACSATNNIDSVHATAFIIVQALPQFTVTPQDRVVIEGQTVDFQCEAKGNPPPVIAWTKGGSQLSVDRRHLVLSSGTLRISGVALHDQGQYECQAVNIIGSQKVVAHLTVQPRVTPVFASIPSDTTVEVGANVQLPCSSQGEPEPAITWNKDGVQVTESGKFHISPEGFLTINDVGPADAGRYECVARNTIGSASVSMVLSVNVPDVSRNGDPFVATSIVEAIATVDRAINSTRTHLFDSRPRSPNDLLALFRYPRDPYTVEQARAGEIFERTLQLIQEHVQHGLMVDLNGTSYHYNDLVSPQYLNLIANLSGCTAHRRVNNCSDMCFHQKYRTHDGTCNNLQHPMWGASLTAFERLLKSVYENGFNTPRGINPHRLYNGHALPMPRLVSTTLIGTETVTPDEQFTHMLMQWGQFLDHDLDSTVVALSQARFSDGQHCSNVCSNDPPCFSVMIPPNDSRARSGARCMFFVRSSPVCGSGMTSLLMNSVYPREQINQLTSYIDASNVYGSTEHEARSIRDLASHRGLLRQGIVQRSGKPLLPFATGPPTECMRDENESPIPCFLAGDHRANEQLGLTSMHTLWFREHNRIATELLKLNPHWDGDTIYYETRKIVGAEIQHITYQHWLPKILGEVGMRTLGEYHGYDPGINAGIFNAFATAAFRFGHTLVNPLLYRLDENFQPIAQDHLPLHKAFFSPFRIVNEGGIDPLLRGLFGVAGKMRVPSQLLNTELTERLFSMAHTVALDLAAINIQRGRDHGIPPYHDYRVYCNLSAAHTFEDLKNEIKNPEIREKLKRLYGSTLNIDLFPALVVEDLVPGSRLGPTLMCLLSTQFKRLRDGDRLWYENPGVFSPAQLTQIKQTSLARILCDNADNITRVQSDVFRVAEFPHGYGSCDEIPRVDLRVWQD
The assay can be described thus: Amplex oxidation activity assay in the absence of bromide. The class given is biochemical. The procedure:
(§2) A previously characterized truncated peroxidasin variant, formerly annotated as hsPxd01-con4 [46], consisting of the four immunoglobulin domains and the peroxidase domain (amino acid residue 246-1314; numbering refers to full length PXDN including the signal peptide as shown in Uniprot Q92626), was used for all experiments using PXDN protein. Cloning, transient transfection, expression and the quality control of the purified recombinant PXDN was performed routinely, as described previously. Molar concentrations are per heme and were determined using an extinction coefficient of 147,500 M^−1 cm^−1 for the heme Soret peak at 412 nm. For the conversion to mg, a molar mass of 140,000 g mol^−1 was used and calculated from the molar concentration per heme. For simplicity we will refer to this variant as peroxidasin (PXDN) throughout the manuscript.
(§3) 100 µL of 50 μM Amplex™ UltraRed and 20 μM hydrogen peroxide in 50 mM phosphate buffer pH 7.4 and the respective inhibitor at twice of its final concentration was added to a 96-well plate. […] The plate was incubated in the dark for 15 min at 37 °C before the fluorescence of resorufin, the resulting Amplex oxidation product, was detected using a SpectraMax iD3 fluorescent plate reader from Molecular Devices LLC, San Jose, CA 95134 (λex 544 nm, λem 590 nm, end point measurement). The same assay was also performed with 50 mM bromide present. To determine IC50 values, Amplex oxidation (measured as the end point as described above) was plotted versus the concentration of the inhibitor and expressed as % inhibition.

Assay [4] deals with T1, Human peroxidasin (PXDN). The assay can be described thus: Amplex oxidation activity assay in the presence of bromide. The class given is biochemical. The procedure: as §2, §3
Assay [5] has as its target T2, PXDN Compound I (Homo sapiens, UniProt Q92626).
T2 construct: the four immunoglobulin domains and the peroxidase domain (amino acid residue 246-1314); made in house; host or cells: transient transfection
T2 sequence (Q92626 246-1314): T1 sequence (Q92626 246-1314)
As to the kind of experiment: Sequential stopped-flow spectroscopy of PXDN Compound I with inhibitors. The note with it: 1 μM PXDN Compound I, pH 7.4, 25 °C. The assay is classed as biochemical. The procedure:
Pre-steady-state spectra were recorded with the stopped-flow apparatus SX.18MV (Applied Photophysics Ltd, Leatherhead, UK) connected to a diode array detector (DAD), with the first spectrum recorded 14 ms after the mixing of the reactants. Due to the inherent instability of Compound I of PXDN, the sequential mixing mode was used to generate Compound I. Equal volumes of 4 μM PXDN and 4 μM hydrogen peroxide were mixed in the aging loop. […] Interconversion of redox intermediates of PXDN was monitored for 60 s. […] All reactions were performed in 100 mM phosphate buffer, pH 7.4, and at 25 °C. Time traces (410 nm to monitor Compound I and ferric PXDN, 432 nm for Compound II and 550 and 590 nm to monitor Compound III [46]) were extracted from the time-resolved spectra.

The target in assay [6] is T1, Human peroxidasin (PXDN). The assay can be described thus: Reversibility of inactivation of immobilized PXDN (wash, then Amplex assay). The class given is biochemical. To be noted: 10 min, washed four times. The procedure: 200 ng of PXDN in 50 μL PBS was added per well of a Corning high-binding ELISA microplate for 2 h at room temperature. After four PBS washes, the respective inhibitors were added at a final concentration of 20 μM in phosphate buffer pH 7.4, before 10 μM of hydrogen peroxide was added in a final volume of 50 μL. In a control experiment, no hydrogen peroxide was added. After 10 min of incubation, the plates were washed four times with PBS and activity was measured as previously described, by adding 50 μL/well of 50 μM Amplex™ UltraRed Reagent, 20 μM hydrogen peroxide and 50 mM bromide in 50 mM phosphate buffer pH 7.4. The plate was incubated for 30 min in the dark at 37 °C before fluorescence was measured (λex 544 nm, λem 590 nm) and expressed as % activity of the untreated control.

Assay [7] addresses T1, Human peroxidasin (PXDN). As to the kind of experiment: Dansylglycine halogenation (bromination) activity assay. The class given is biochemical. The note with it: 50 nM PXDN, 100 mM bromide. The procedure: as §2
Dansylglycine (DG) was made up fresh every day and kept in the dark at room temperature. […] We mixed 50 nM PXDN in 100 mM phosphate buffer pH 7.4 with 50 μM DG and 100 mM bromide, before the reaction was started by adding 200 μM of hydrogen peroxide to a final volume of 1.5 mL. Loss of fluorescence was monitored for 60 s using a F-7000 Hitachi (Methrom-Inula, Vienna) fluorometer (λex 340 nm, λem 550 nm). […] The loss of fluorescence was fitted linearly to determine the rate of reaction (min^−1). The effect of the inhibitors was expressed as % inhibition, relative to the rate of the halogenation activity of PXDN without an inhibitor. IC50 values were determined by varying inhibitor concentrations (0–48 μM).

The test system of assay [8] is collagen IV cross-link formation by PXDN. Set-up: method as in PMID 22842973. The note with it: cited from earlier work.

pIC50: −log10 of the molar value.

In the case of `O=C(O)CNc1ccc(Cl)cc1` [Cl-PAAA, (2-[(4-chlorophenyl)amino]-acetic acid)], the pIC50 in assay [1] is 5.43. For the same compound, the “IC50 Cells” value in assay [2] was “toxic”.

As for `NNC(=O)CNc1ccc(Cl)cc1` [Cl-PAAH, (2-[(4-chlorophenyl)amino]-acetohydrazide)], the pIC50 in assay [1] is 4.90; in assay [2] (168 h), about 3.76.

For `NCCc1ccc(O)c(O)c1` [Dopamine], the pIC50 in assay [3] was 8.00. Further, the inhibition at 20 µM in assay [4] (20 μM inhibitor, 50 mM bromide) is 25 to 70%. Besides, in assay [5], the “Mechanism or Reaction Steady and Pre-Steady State Spectrophotometry” value was “Good substrate for CI and CII”.

For the compound `NNC(=O)CNc1ccccc1F` [F-PAAH, 2-[(2-fluorophenyl)amino]-acetohydrazide], the pIC50 in assay [3] is 5.62; in assay [4] it was 6.05; in assay [1] it was 3.81. In addition, the inhibition at 20 µM in assay [4] (20 μM inhibitor, 50 mM bromide) was determined as 90%. Further, the “Irreversible Inhibition” value in assay [6] (20 μM inhibitor, then Amplex assay) is on record as “no”. In assay [6] (immobilized PXDN, 20 μM inhibitor without or with 10 μM hydrogen peroxide), the “inhibition of PXDN remaining after washing” value is reported as “no statistically significant difference”. For the same compound, the “Mechanism or Reaction Steady and Pre-Steady State Spectrophotometry” value in assay [5] is listed as “forms Compound III”. Further, in assay [2], the “IC50 Cells” value is given as “ineffective”.

Turning to `COc1ccc2c(C)nc(N=C(N)N)nc2c1` [Quinazoline, 2-(7-methoxy-4-methylquinazoline-2-yl)guanidine], the pIC50 in assay [3] was 6.70. In assay [4] (20 μM inhibitor, 50 mM bromide), the inhibition at 20 µM is 25 to 70%. In addition, the “Mechanism or Reaction Steady and Pre-Steady State Spectrophotometry” value in assay [5] is “Good substrate for CI and CII”.

As to `CSc1ccc2c(c1)N(CCC1CCCCN1C)c1ccccc1S2` (stereo not shown) [Thioridazine], the inhibition at 24 µM in assay [7] (24 μM inhibitor, 50 μM DG, 200 μM hydrogen peroxide, pH 7.4) is 97 to 99%. Besides, the pIC50 in assay [7] (inhibitor 0–48 μM, read-out: IC50 Halogenation Dansylglycin) was 5.74. The “enhancement of Amplex oxidation” value in assay [3] (20 μM compound, without bromide) is “about 50%”. Moreover, the “inhibition of Amplex oxidation in the presence of bromide” value in assay [4] (20 μM inhibitor, 50 mM bromide) is given as “neither activation of Amplex oxidation, nor much inhibition”. Moreover, the “Mechanism or Reaction Steady and Pre-Steady State Spectrophotometry” value in assay [5] is on record as “Good substrate for CI, not a substrate for CII”.

With `Cn1cc[nH]c1=S` [methimazole], the “inhibition of collagen IV cross-link formation by PXDN” value in assay [8] is “potently inhibits”.

As to “(E)-2-methoxy-4-((2-phtalazine-1yl)hydrazono)methyl)phenol [Hydralazine-vanillin]”, the “Mechanism or Reaction Steady and Pre-Steady State Spectrophotometry” value in assay [5] is listed as “good peroxidation substrates”.
